Laboratory results from patent US10849880B2, “Pharmaceutical composition” (FUJIFILM Toyama Chemical Co., Ltd., priority 2016, dated 2020).

Assays:
[1] = pH of maleate of compound A and additive dissolved or suspended in 10 mmol/L KCl solution; format: physicochemical; settings: maleate of compound A 1 mg/mL with additive
Experimental: The pH was measured when the maleate of compound A and the additive were dissolved or suspended in a 10 mmol/L KCl solution in such a way as to reach the respective numerical values shown in Table 2 to Table 6.

[2] = Evaluation of degradation material: stress test at 70° C. for 7 days, HPLC; format: physicochemical; settings: class of degradation material after 70° C.
Experimental: The prepared solid pharmaceutical composition was subjected to a stress test that it was stored in a thermostat at 70° C. for 7 days. The storage stability was evaluated in terms of the amount of compound A decomposed by the following method.
The above stored solid pharmaceutical composition was adjusted with water/acetonitrile/pH 3.0 phosphate buffer (450:50:1) such that the maleate of compound A had 333 μg/mL and was filtered through a membrane filter to obtain a filtrate. The degradation material of compound A was quantified by high performance liquid chromatography (HPLC). The amount of the degradation material detected at a relative retention time of 0.94 with respect to compound A was quantified as the degradation material of compound A under the following measurement conditions.
(HPLC Measurement Condition)
Evaluation criteria for the degradation material are as follows:
Evaluation was performed in the same manner as described in Examples 1-19 and Comparative Examples 1-14.

- pH [1]: 4.5
- Evaluation of degradation material [2]: A (Less than 0.25%)
SMILES: OC1CN(CCCOCCc2ccc3sccc3c2)C1 [compound 14, 1-(3-(2-(1-benzothiophen-5-yl)ethoxy)propyl)azetidin-3-ol]
